Experimental data published in ChEMBL document CHEMBL1158975, “An antiviral sesquiterpene hydroquinone from the marine sponge Strongylophora hartmani” (J Nat Prod, 1991).
≈ marks a conversion by molar mass, not a printed value.

Columns and labels:
[1] = Therapeutic index, ratio of cytotoxicity against MDCK cells to IC50 for influenza virus A/Puerto Rico/8/34 H1N1; assay type: cell-based; details: dog, read-out: TI
Influenza A virus = assay: Antiviral activity against influenza virus A/Puerto Rico/8/34 H1N1 in MDCK cells assessed as reduction in virus-induced cytopathic effect after 3 days by neutral red uptake assay; assay type: functional, organism-based; details: A/Puerto Rico/8/1934(H1N1), 72 h
P388 = assay: Cytotoxicity against mouse P388 cells by microculture tetrazolium assay; assay type: functional, cell-based

Structure (SMILES)	selectivity ratio [1]	IC50 (Influenza A virus) [µg/mL]	IC50 (P388) [µg/mL]
COc1ccc(O)c2c1C[C@]1(C)[C@@H](C)CC[C@H]3C(C)(C)CCC[C@]31O2 [STRONGYLIN A]	9	6.5 (≈ 18.9 µM)	13 (≈ 37.7 µM)
COc1ccc(OC(C)=O)c2c1C[C@]1(C)[C@@H](C)CC[C@H]3C(C)(C)CCC[C@]31O2	100	5 (≈ 12.9 µM)	23.8 (≈ 61.6 µM)
